Columns and labels:
Type in all cases: functional, cell-based
[1] = target: T1, ATP-dependent translocase ABCB1 (Homo sapiens, UniProt P08183); experiment: TP_TRANSPORTER: inhibition of Doxorubicin efflux (Doxorubicin: 50 uM, Chlorpyrifos: 250 uM) in MDR1-expressing B16/F10 cells; conditions: mouse, b16-f10, 250 µM
[2] = target: T1, ATP-dependent translocase ABCB1; experiment: TP_TRANSPORTER: inhibition of Doxorubicin efflux (Doxorubicin: 50 uM, Chlorthiophos: 250 uM) in MDR1-expressing B16/F10 cells; conditions: mouse, b16-f10, 250 µM
[3] = target: T1, ATP-dependent translocase ABCB1; experiment: TP_TRANSPORTER: inhibition of Doxorubicin efflux (Doxorubicin: 50 uM, Clotrimazole: 100 uM) in MDR1-expressing B16/F10 cells; conditions: mouse, b16-f10, 100 µM
[4] = target: T2, MDR1 (ABCB1, ATP-dependent translocase) (Homo sapiens, UniProt P08183); experiment: TP_TRANSPORTER: inhibition of Doxorubicin efflux (Doxorubicin: 50 uM, Dicapthon: 250 uM) in MDR1-expressing B16/F10 cells; conditions: mouse, probe Doxorubicin
[5] = target: T1, ATP-dependent translocase ABCB1; experiment: TP_TRANSPORTER: efflux in MDR1-expressing B16/F10 cells; conditions: mouse
[6] = target: T2, MDR1 (ABCB1, ATP-dependent translocase); experiment: TP_TRANSPORTER: inhibition of Doxorubicin efflux (Doxorubicin: 50 uM, Endosulfan: 100 uM) in MDR1-expressing B16/F10 cells; conditions: mouse, probe Doxorubicin
[7] = target: T1, ATP-dependent translocase ABCB1; experiment: TP_TRANSPORTER: inhibition of Doxorubicin efflux (Doxorubicin: 50 uM, Fluvalinate: 250 uM) in MDR1-expressing B16/F10 cells; conditions: mouse, b16-f10, 250 µM
[8] = target: T2, MDR1 (ABCB1, ATP-dependent translocase); experiment: TP_TRANSPORTER: inhibition of Doxorubicin efflux (Doxorubicin: 50 uM, Heptachlor epoxide: 250 uM) in MDR1-expressing B16/F10 cells; conditions: mouse, probe Doxorubicin
[9] = target: T2, MDR1 (ABCB1, ATP-dependent translocase); experiment: TP_TRANSPORTER: inhibition of Doxorubicin efflux (Doxorubicin: 50 uM, Heptachlor: 250 uM) in MDR1-expressing B16/F10 cells; conditions: mouse, probe Doxorubicin
[10] = target: T2, MDR1 (ABCB1, ATP-dependent translocase); experiment: TP_TRANSPORTER: inhibition of Doxorubicin efflux (Doxorubicin: 50 uM, Hydramethylnon: 8 uM) in MDR1-expressing B16/F10 cells; conditions: mouse, probe Doxorubicin
[11] = target: T2, MDR1 (ABCB1, ATP-dependent translocase); experiment: TP_TRANSPORTER: inhibition of Doxorubicin efflux (Doxorubicin: 50 uM, Chlordecone: 250 uM) in MDR1-expressing B16/F10 cells; conditions: mouse, probe Doxorubicin
[12] = target: T1, ATP-dependent translocase ABCB1; experiment: TP_TRANSPORTER: inhibition of Doxorubicin efflux (Doxorubicin: 50 uM, […]: 250 uM) in MDR1-expressing B16/F10 cells; conditions: mouse, b16-f10, 250 µM
[13] = target: T2, MDR1 (ABCB1, ATP-dependent translocase); experiment: TP_TRANSPORTER: inhibition of Doxorubicin efflux (Doxorubicin: 50 uM, Parathion: 250 uM) in MDR1-expressing B16/F10 cells; conditions: mouse, probe Doxorubicin
[14] = target: T1, ATP-dependent translocase ABCB1; experiment: TP_TRANSPORTER: inhibition of Doxorubicin efflux (Doxorubicin: 50 uM, Phenamiphos: 250 uM) in MDR1-expressing B16/F10 cells; conditions: mouse, b16-f10, 250 µM
[15] = target: T2, MDR1 (ABCB1, ATP-dependent translocase); experiment: TP_TRANSPORTER: inhibition of Doxorubicin efflux (Doxorubicin: 50 uM, Tetrachlorohydroquinone: 250 uM) in MDR1-expressing B16/F10 cells; conditions: mouse, probe Doxorubicin

T2 sequence (P08183 whole entry): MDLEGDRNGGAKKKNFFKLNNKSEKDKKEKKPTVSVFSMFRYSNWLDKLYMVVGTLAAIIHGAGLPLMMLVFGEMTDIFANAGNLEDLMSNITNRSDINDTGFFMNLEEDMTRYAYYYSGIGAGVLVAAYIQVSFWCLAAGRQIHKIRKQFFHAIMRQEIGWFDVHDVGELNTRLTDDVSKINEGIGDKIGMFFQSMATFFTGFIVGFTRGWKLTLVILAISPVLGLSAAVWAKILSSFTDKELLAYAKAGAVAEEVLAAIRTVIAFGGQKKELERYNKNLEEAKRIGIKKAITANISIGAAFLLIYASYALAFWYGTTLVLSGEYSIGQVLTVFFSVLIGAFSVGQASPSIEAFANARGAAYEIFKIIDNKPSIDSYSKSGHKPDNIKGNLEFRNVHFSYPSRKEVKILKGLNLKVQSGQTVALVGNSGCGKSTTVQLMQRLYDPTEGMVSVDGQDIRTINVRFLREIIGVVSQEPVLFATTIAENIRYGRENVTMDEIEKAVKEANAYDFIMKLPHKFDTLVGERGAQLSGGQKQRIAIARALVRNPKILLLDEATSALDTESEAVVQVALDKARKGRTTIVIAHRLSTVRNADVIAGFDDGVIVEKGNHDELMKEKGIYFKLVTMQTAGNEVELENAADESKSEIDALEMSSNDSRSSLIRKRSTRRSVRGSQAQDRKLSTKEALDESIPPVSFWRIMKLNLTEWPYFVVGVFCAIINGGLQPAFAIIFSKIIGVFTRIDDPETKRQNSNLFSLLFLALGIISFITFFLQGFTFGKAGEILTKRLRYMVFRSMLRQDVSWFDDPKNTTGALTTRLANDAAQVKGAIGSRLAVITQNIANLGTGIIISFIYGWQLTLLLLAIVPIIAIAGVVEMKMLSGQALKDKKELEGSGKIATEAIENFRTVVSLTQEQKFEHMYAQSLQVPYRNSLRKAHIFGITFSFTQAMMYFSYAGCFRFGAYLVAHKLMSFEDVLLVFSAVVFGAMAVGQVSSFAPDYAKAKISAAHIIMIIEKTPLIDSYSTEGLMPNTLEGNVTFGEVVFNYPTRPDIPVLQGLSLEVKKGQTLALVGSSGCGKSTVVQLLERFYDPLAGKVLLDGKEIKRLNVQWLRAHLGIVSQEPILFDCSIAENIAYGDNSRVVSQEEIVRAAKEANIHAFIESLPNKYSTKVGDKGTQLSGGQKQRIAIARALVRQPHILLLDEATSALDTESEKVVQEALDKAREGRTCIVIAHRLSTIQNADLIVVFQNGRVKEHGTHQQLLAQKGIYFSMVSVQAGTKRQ
T1 sequence (P08183 whole entry): as above

In the case of `CCOP(=S)(OCC)Oc1nc(Cl)c(Cl)cc1Cl` [CHLORPYRIFOS], the Inhibition [1] is reported as “inhibitor [51-80 % inhibition]”.

In the case of `CCOP(=S)(OCC)Oc1cc(Cl)c(SC)cc1Cl` [CHLORTHIOPHOS], the Inhibition [2] is reported as “inhibitor [51-80 % inhibition]”.

With `Clc1ccccc1C(c1ccccc1)(c1ccccc1)n1ccnc1` [CLOTRIMAZOLE] the Inhibition [3] was “inhibitor [51-80 % inhibition]”.

Compound `COP(=S)(OC)Oc1ccc([N+](=O)[O-])cc1Cl` [DICAPTHON] has an inhibition at 250 µM [4] greater than 80%.

`O=S1OCC2C(CO1)C1(Cl)C(Cl)=C(Cl)C2(Cl)C1(Cl)Cl` (stereo not given) [ENDOSULFAN] was tested, and the Activity [5] was “substrate [+]” and the inhibition at 100 µM [6] was greater than 80%.

In the case of `CC(C)[C@H](Nc1ccc(C(F)(F)F)cc1Cl)C(=O)OC(C#N)c1cccc(Oc2ccccc2)c1` (stereo not given in full) [FLUVALINATE], the Inhibition [7] is reported as “inhibitor [31-50 % inhibition]”.

`ClC1=C(Cl)C2(Cl)C3C4OC4C(Cl)C3C1(Cl)C2(Cl)Cl` (stereo not given) [HEPTACHLOR EPOXIDE] showed an inhibition at 250 µM [8] greater than 80%.

For `ClC1=C(Cl)C2(Cl)C3C(Cl)C=CC3C1(Cl)C2(Cl)Cl` (stereo not given) [HEPTACHLOR], the inhibition at 250 µM [9] was greater than 80%.

`CC1(C)CNC(=NN=C(/C=C/c2ccc(C(F)(F)F)cc2)/C=C/c2ccc(C(F)(F)F)cc2)NC1` [HYDRAMETHYLNON] was tested, and the inhibition at 8 µM [10] was greater than 80%.

Work on `O=C1C2(Cl)C3(Cl)C4(Cl)C(Cl)(Cl)C5(Cl)C3(Cl)C1(Cl)C5(Cl)C24Cl` (stereo not given) [KEPONE] yielded an inhibition at 250 µM [11] greater than 80%.

For `COP(=S)(Oc1cc(Cl)c(Br)cc1Cl)c1ccccc1` (stereo not given) [LEPTOPHOS], the Inhibition [12] was “inhibitor [51-80 % inhibition]”.

`CCOP(=S)(OCC)Oc1ccc([N+](=O)[O-])cc1` [PARATHION] showed an inhibition at 250 µM [13] greater than 80%.

With `CCOP(=O)(NC(C)C)Oc1ccc(SC)c(C)c1` (stereo not given) [PHENAMIPHOS] the Inhibition [14] was “inhibitor [51-80 % inhibition]”.

In the case of `Oc1c(Cl)c(Cl)c(O)c(Cl)c1Cl` [TETRACHLOROHYDROQUINONE], the inhibition at 250 µM [15] is reported as greater than 80%.

From ChEMBL document CHEMBL2073776, “Interaction of structurally diverse pesticides with the human MDR1 gene product P-glycoprotein” (Toxicol Appl Pharmacol, 1996)
